From publication PMC6121260, “Sulfated Metabolites of Flavonolignans and 2,3-Dehydroflavonolignans: Preparation and Properties” (International Journal of Molecular Sciences, 2018)
Marks after values point to notes of the source that are not given here.

Assays:
[1] = Folin–Ciocalteu reagent (FCR) reduction; type: biochemical; conditions: Folin–Ciocalteau reagent reduction, gallic acid equivalents, mean ± standard error
Method: (§1) N,N-dimethyl-p-phenylenediamine (DMPD) and 2,2′-azino-bis(3-ethylbenzothiazolin-6-sulfonic acid (ABTS) cation radical scavenging and ferric reducing antioxidant power (FRAP) were measured using kits from Bioquochem (Llanera-Asturias, Spain). Antiradical activity by 2,2-diphenyl-1-picrylhydrazyl radical scavenging assay, reducing capacity using Folin–Ciocalteau reagent (FCR), and anti-lipoperoxidant activity using inhibition of lipid peroxidation of rat liver microsomes induced by tert-butyl hydroperoxide were determined as described previously with modifications described in detail in our previous research.

[2] = DMPD+ cation radical scavenging; type: biochemical; conditions: vitamin C equivalents, mean ± standard error
Method: as §1

[3] = Inhibition of lipoperoxidation (Lpx) induced by tert-butyl hydroperoxide; type: biochemical; conditions: rat liver microsomal membranes, mean ± standard error
Method: as §1

[4] = Log p, octan-1-ol / phosphate buffer partition; type: physicochemical; conditions: octan-1-ol / 6.6 mM phosphate buffer pH 7.4, 25 °C
Method: The hydrophobicity of the compounds was determined by measuring their partition coefficient P in a mixture of two immiscible phases—octan-1-ol and 6.6 mM phosphate buffer pH 7.4. Stock solutions (0.5 mM) were prepared in octan-1-ol (parent compounds) and in the buffer (sulfated compounds). The stock solutions (150 µL) were mixed with 150 µL of the immiscible phase in microcentrifuge tubes (1.5 mL); shaken for 2 h (750 rpm, 25 °C); and after incubation, the phases were separated. Water phases were diluted 1:1 with the mobile phase (acetonitrile/deionized water/HCO2H, 5:95:0.1; v/v) and analyzed by HPLC using the gradient G3 (see Section 3.1.3). Octan-1-ol phases were evaporated in the stream of air (70 °C), then dissolved in 10 µL of DMSO, and mixed with 90 µL of mobile phase and analyzed by HPLC. The log p values were calculated from the respective peak heights (h) using the formula log p = log(hoctanol/hbuffer). For comparison, log p values were calculated using the Molinspiration property engine v2016.10 (http://www.molinspiration.com, Molinspiration Cheminformatics, Slovensky Grob, Slovakia) (access on 26th October 2017).

DPPH radical scavenging = type: biochemical; conditions: mean ± standard error
Method: as §1

[5] = ABTS+ cation radical scavenging; type: biochemical; conditions: vitamin C equivalents, mean ± standard error
Method: as §1

[6] = Ferric reducing antioxidant power (FRAP); type: biochemical; conditions: equivalents of Fe^2+, mean ± standard error
Method: as §1

[7] = tested on: NAD(P)/quinone oxidoreductase 1 (NQO1) activity in Hepa1c1c7 cells; test: NQO1 activity in Hepa1c1c7 cells (Nrf2 pathway); type: cell-based, murine; conditions: 48 h; for NQO1 activity, fold versus control: 50 µM
Method: The murine hepatoma Hepa1c1c7 cell line (ECACC, Salisbury, UK) was cultured in minimum essential medium α (M0894, Sigma-Aldrich, St. Louis, MO, USA), supplemented with 2.2 g/L NaHCO3 and 10% heat- and charcoal-treated fetal bovine serum (Biochrom, Berlin, Germany), and maintained at 37 °C in a humidified atmosphere containing 5% CO2. For all experiments, cells were seeded onto 96-well plates at 1 × 10^4 cells/well. After 24 h of stabilization, cells were treated for 48 h with 0.1% (v/v) DMSO (negative control), 2.5 µM sulforaphane (positive control; Sigma-Aldrich, St. Louis, MO, USA), or with the tested compounds in fresh culture medium. After the treatment, the activity of NQO1 was determined spectrophotometrically as described previously. Cells were washed with phosphate-buffered saline (PBS) and lysed with 75 µL of digitonin solution (0.8 g/L digitonin, 2 mM EDTA, pH 7.8) by shaking on an orbital shaker for 20 min at room temperature. A part of the cell lysate (20 µL) was used to determine the protein content. The remaining lysate (55 µL) was mixed with 200 µL of 0.5 M Tris-Cl buffer containing 10% (w/v) bovine serum albumin, 1.5% (v/v) Tween-20, 7.5 mM FAD, 150 mM glucose-6-phosphate, 2 U/mL glucose-6-phosphate dehydrogenase (Roche Diagnostics, Mannheim, Germany), 50 mM NADP^+, 25 mM menadione, and 0.7 mM 3-(4,5-dimethylthiazol-2-yl)-2,5-diphenyltetrazolium bromide (MTT). The mixture was incubated for 5 min at room temperature and the reaction was stopped with 50 µL of dicumarol suspension (0.3 mM dicumarol, 5 mM potassium phosphate, 0.5% (v/v) DMSO). The absorbance of the reduced MTT corresponding to the activity of NQO1 was measured at 610 nm on a spectrophotometric plate reader. The absorbance values were normalized to the protein content and used for the calculation of fold changes versus the control.

[8] = target: T1, aryl sulfotransferase from rat liver (AST IV) (Rattus norvegicus, UniProt P17988); test: Substrate specificity of AST IV (whole E. coli cells, p-NPS donor); type: in vitro ADME; design: key: +: isolated sulfated product(s) and/or release of p-nitrophenol (p-NP); –: no formation of p-NP and/or isolated sulfated products; conditions: whole E. coli cells expressing AST IV, 37 °C, 72 h
T1 construct: made in house; host or cells: E. coli BL21 (DE3) Gold (whole cells used as catalyst)
Method: The plasmid bearing astIV gene was kindly provided by Prof. L. Elling, RWTH Aachen, Germany. The enzyme was expressed in E. coli BL21 (DE3) Gold as described, with modifications reported in our previous work. Whole E. coli cells producing the enzyme, freshly prepared according to the literature, were employed in the biotransformation experiments as a catalyst.
Silybin, silybin A, silybin B, silychristin, and silydianin (separately, each 50 mg, 0.104 mmol) and p-nitrophenyl sulfate (p-NPS, 35 mg, 0.136 mmol; Sigma-Aldrich, St. Louis, MO, USA) were dissolved in 3 mL DMSO, and 2 g (wet based) of whole cells expressing AST IV resuspended in K-phosphate buffer (pH 7.5, 17 mL) were added. The reaction mixture was incubated on a rotary shaker at 37 °C for 24 h. The cells were then removed by centrifugation (30 min, 5000 rpm, 5404 R Eppendorf, Germany), a new portion of fresh cells (2 g in 15 mL, wet based, resuspended in K-phosphate buffer) were added to the supernatant and incubated for 24 h. This step was repeated once more with a total reaction time of 72 h. The reaction was monitored by HPLC and after 72 h, the reaction mixtures, containing the sulfated product(s), were purified by preparative HPLC employing Asahipak GS-310 20F (Shodex, Tokyo, Japan) column with isocratic elution with 100% methanol. The fraction containing the putative sulfated product(s) was evaporated, dissolved in 1 mL of 80% methanol, and loaded onto a Sephadex LH-20 column (15 g dry weight, 12 mm i.d.) packed and eluted with 80% methanol. Only one sulfated product was obtained; silybin B 20-O-sulfate (14.5 mg, 0.03 mmol, yield 25%), whose identity was confirmed by comparison with previously published data.

T1 sequence (P17988 whole entry): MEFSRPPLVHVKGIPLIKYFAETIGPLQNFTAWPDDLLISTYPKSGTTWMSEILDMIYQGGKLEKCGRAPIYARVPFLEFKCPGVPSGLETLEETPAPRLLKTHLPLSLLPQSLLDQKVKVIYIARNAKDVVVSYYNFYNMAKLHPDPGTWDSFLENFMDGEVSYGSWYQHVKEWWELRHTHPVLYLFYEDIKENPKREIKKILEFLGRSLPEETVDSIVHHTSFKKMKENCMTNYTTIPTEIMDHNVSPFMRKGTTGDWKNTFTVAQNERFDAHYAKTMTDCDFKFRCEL

SMILES	FCR [GAE] [1]	DMPD^+ [CE] [2]	IC50 [3] [µM]	logP at 2 h [4]	IC50 (DPPH radical scavenging) [µM]	ABTS^+ [CE] [5]	FRAP [Fe^2+] [6]	NQO1 activity, fold versus control [7] [fold]	also measured
COc1cc(C2Oc3c(O)cc([C@H]4Oc5cc(O)cc(O)c5C(=O)[C@@H]4O)cc3C2CO)ccc1OS(=O)(=O)O (some centres unmarked) [Silychristin-19-O-sulfate]	0.80 ± 0.11 ^m GAE	1.56 ± 0.08^o CE	134 ± 2	-2.25	587 ± 11	0.62 ± 0.03 ^k CE	0.05 ± 0.01 ^q Fe^2+	1.3	–
COc1cc(C2Oc3c(O)cc([C@H]4Oc5cc(O)cc(O)c5C(=O)[C@@H]4O)cc3C2CO)ccc1O (some centres unmarked) [Silychristin, reference compound]	1.13 ± 0.23 ^m GAE	1.50 ± 0.02^o CE	17.9 ± 0.7	1.47	37.1 ± 3.1	1.50 ± 0.09 CE	0.64 ± 0.06 Fe^2+	–	DMPD^+ [CE] ([2]; listed as silychristin): 1.5 CE; Formation of p-NP [8]: + ^a
C[S+]([O-])CCCCN=C=S (centres unmarked) [sulforaphane, reference compound]	–	–	–	–	–	–	–	–	NQO1 activity, fold increase compared with the control ([7]; 2.5 µM, positive control): 4.3 fold
COc1cc([C@@H]2Oc3cc([C@H]4Oc5cc(O)cc(O)c5C(=O)[C@@H]4O)ccc3O[C@H]2CO)ccc1OS(=O)(=O)O [Silybin B 20-O-sulfate]	0.16 ± 0.02 GAE	0.99 ± 0.01 ^n CE	> 1000	-2.34	> 2500	0.04 ± 0.00 CE	0.01 ± 0.00 ^p Fe^2+	0.9	FCR [GAE] ([1]; listed as silybin sulfates B): 0.16 GAE
COc1cc(C2Oc3c(O)cc(-c4oc5cc(O)cc(O)c5c(=O)c4O)cc3C2CO)ccc1O (centres unmarked) [2,3-Dehydrosilychristin, reference compound]	1.58 ± 0.04 ^l GAE	0.97 ± 0.02 ^n CE	14.6 ± 0.4	> 3	8.6 ± 0.8	0.93 ± 0.03 ^l CE	0.28 ± 0.01 Fe^2+	–	FCR [GAE] ([1]; listed as 2,3-dehydrosilychristin): 1.58 GAE
Cc1c(C)c2c(c(C)c1O)CCC(C)(C(=O)O)O2 (centres unmarked) [Trolox, reference compound]	0.33 ± 0.00 ^k GAE	–	32.7 ± 2.4	–	2.9 ± 0.1	–	–	–	–
COc1cc(C2Oc3cc(-c4oc5cc(O)cc(O)c5c(=O)c4O)ccc3OC2CO)ccc1O (centres unmarked) [2,3-Dehydrosilybin, reference compound]	1.51 ± 0.09 ^l GAE	1.02 ± 0.02 ^n CE	10.4 ± 0.4	> 3	13.3 ± 0.6	0.77 ± 0.01 ^j CE	0.81 ± 0.02 Fe^2+	–	FCR [GAE] ([1]; listed as 2,3-dehydrosilybin): 1.50 GAE; IC50 (DPPH radical scavenging; listed as 2,3-dehydrosilybin): 13 to 14 µM; FRAP [Fe^2+] ([6]; listed as 2,3-dehydrosilybin): 0.81 Fe^2+
COc1cc([C@@H]2[C@H]3CO[C@@]4(O)C(=O)[C@@H]2C=C([C@H]2Oc5cc(O)cc(O)c5C(=O)[C@@H]2O)[C@@H]34)ccc1O [Silydianin]	–	–	–	–	–	–	–	–	Formation of p-NP [8]: + ^a
COc1cc([C@H]2Oc3cc([C@H]4Oc5cc(O)cc(O)c5C(=O)[C@@H]4O)ccc3O[C@@H]2CO)ccc1OS(=O)(=O)O [Silybin A 20-O-sulfate]	0.08 ± 0.01 GAE	0.98 ± 0.01 ^n CE	> 1000	-1.65	> 2500	0.02 ± 0.00 CE	0.01 ± 0.00 ^p Fe^2+	1.2	FCR [GAE] ([1]; listed as silybin sulfates A): 0.08 GAE
COc1cc(C2Oc3c(O)cc(-c4oc5cc(O)cc(O)c5c(=O)c4O)cc3C2CO)ccc1OS(=O)(=O)O (centres unmarked) [2,3-Dehydro-silychristin-19-O-sulfate, 2,3-Dehydrosilychristin-19-O-sulfate]	1.44 ± 0.01 ^l GAE	1.02 ± 0.04 ^n CE	12 ± 1.8	-2.24	7.9 ± 0.3	0.62 ± 0.02 ^n CE	1.44 ± 0.04 ^r Fe^2+	1.4	IC50 (DPPH radical scavenging; listed as 2,3-dehydrosilychristin monosulfate): 8 µM
COc1cc(C2Oc3cc([C@H]4Oc5cc(O)cc(O)c5C(=O)[C@@H]4O)ccc3OC2CO)ccc1O (some centres unmarked) [Silybin A/B, Silybin]	–	–	–	–	–	–	–	–	Formation of p-NP [8]: + ^a
COc1cc(C2Oc3cc(-c4oc5cc(O)cc(O)c5c(=O)c4O)ccc3OC2CO)ccc1OS(=O)(=O)O (centres unmarked) [2,3-Dehydrosilybin-20-O-sulfate]	1.03 ± 0.01 ^m GAE	0.97 ± 0.02 ^n CE	13.7 ± 0.4	-2.16	14.1 ± 0.5	0.71 ± 0.03 ^j CE	1.46 ± 0.03 ^r Fe^2+	1.3	–
COc1cc(C2Oc3cc(-c4oc5cc(OS(=O)(=O)O)cc(O)c5c(=O)c4O)ccc3OC2CO)ccc1OS(=O)(=O)O (centres unmarked) [2,3-Dehydrosilybin-7,20-di-O-sulfate]	0.95 ± 0.01 ^m GAE	1.90 ± 0.10 CE	90.7 ± 3.3	< -3	106 ± 4	0.55 ± 0.03 CE	1.61 ± 0.04 Fe^2+	1.2	DMPD^+ [CE] ([2]; listed as 2,3-dehydrosilybin disulfate): 1.90 CE; FRAP [Fe^2+] ([6]; listed as 2,3-dehydrosilybin-7,20-di-O-sulfate): 1.61 Fe^2+
